Reference: ChEMBL document CHEMBL6087474, “Discovery of an Efficacious RET PROTAC Degrader with Enhanced Antiproliferative Activity against Resistant Cancer Cells Harboring RET Solvent-Front Mutations” (J Med Chem, 2025)
Calls of active or inactive are those of the source. No cut-off for these calls is given here.

Experiments:
BaF3 = assay: Antiproliferative activity against mouse BaF3 cells stably expressing KIF5B-RET-G810C mutant incubated for 72 hrs by CCK-8 assay; type: functional, cell-based; settings: BaF3, 72 h
[1] = Effect on RET protein level in mouse BaF3 cells stably expressing KIF5B-RET-G810C mutant assessed as fold change at 11.1 nM measured after 6 hrs by Western blot analysis (reference value: 1); type: functional
[2] = Induction of apoptosis in mouse BaF3 cells stably expressing KIF5B-RET-G810C mutant assessed as early apoptotic cells at 900 nM measured after 48 hrs by Annexin V-FITC/7-AAD staining based flow cytometric analysis (reference value: 8.57 %); type: functional
[3] = Potency index, ratio of selpercatinib IC50 to test compound IC50 for antiproliferative activity against mouse BaF3 cells stably expressing KIF5B-RET-G810R mutant incubated for 72 hrs by CCK-8 assay; type: functional
[4] = Induction of apoptosis in mouse BaF3 cells stably expressing wildtype KIF5B-RET fusion protein assessed as necrotic cells at 100 nM measured after 48 hrs by Annexin V-FITC/7-AAD staining based flow cytometric analysis (reference value: 2.40 %); type: functional
[5] = Effect on RET protein level in mouse BaF3 cells stably expressing KIF5B-RET-G810R mutant assessed as fold change at 11.1 nM measured after 6 hrs by Western blot analysis (reference value: 1); type: functional
[6] = tested on: Kinesin-1 heavy chain/ Tyrosine-protein kinase receptor RET (Homo sapiens), P07949+P33176 [G810C]; assay: In vivo PROTAC activity at CRBN/KIF5B-RET-G810C mutant in male BALB/c mouse model implanted with mouse BaF3 cells stably expressing KIF5B-RET-G810C mutant assessed as induction of RET degradation in tumor at 10 mg/kg, ip measured after 3 days by Western blotting analysis relative to control; type: functional, organism-based; settings: time 3.0 day
[7] = Effect on RET protein level in mouse BaF3 cells stably expressing KIF5B-RET-V804M mutant assessed as fold change at 33.3 nM measured after 6 hrs by Western blot analysis (reference value: 1); type: functional
[8] = Potency index, ratio of selpercatinib IC50 to test compound IC50 for antiproliferative activity against mouse BaF3 cells stably expressing CCDC6-RET-G810C mutant incubated for 72 hrs by CCK-8 assay; type: functional
[9] = Induction of apoptosis in mouse BaF3 cells stably expressing KIF5B-RET-G810C mutant assessed as viable cells at 33.3 nM measured after 48 hrs by Annexin V-FITC/7-AAD staining based flow cytometric analysis (reference value: 86.58 %); type: functional; settings: read-out: Activity
[10] = Cmax in male ICR mouse at 10 mg/kg, ip measured after 24 hrs by LC-MS/MS analysis; type: ADME, organism-based; settings: in vivo
[11] = Effect on RET protein level in mouse BaF3 cells stably expressing KIF5B-RET-G810C mutant assessed as fold change at 300 nM measured after 6 hrs by Western blot analysis (reference value: 1); type: functional
[12] = Induction of apoptosis in mouse BaF3 cells stably expressing KIF5B-RET-G810C mutant assessed as early apoptotic cells at 33.3 nM measured after 48 hrs by Annexin V-FITC/7-AAD staining based flow cytometric analysis (reference value: 8.57 %); type: functional
[13] = Potency index, ratio of selpercatinib IC50 to test compound IC50 for antiproliferative activity against mouse BaF3 cells stably expressing KIF5B-RET-G810C mutant incubated for 72 hrs by CCK-8 assay; type: functional
[14] = Effect on RET protein level in mouse BaF3 cells stably expressing KIF5B-RET-G810C mutant assessed as fold change at 100 nM measured after 6 hrs by Western blot analysis (reference value: 1); type: functional
[15] = Induction of apoptosis in mouse BaF3 cells stably expressing KIF5B-RET-G810C mutant assessed as late apoptotic cells at 33.3 nM measured after 48 hrs by Annexin V-FITC/7-AAD staining based flow cytometric analysis (reference value: 1.96 %); type: functional
[16] = Induction of apoptosis in mouse BaF3 cells stably expressing wildtype KIF5B-RET fusion protein assessed as early apoptotic cells at 33.3 nM measured after 48 hrs by Annexin V-FITC/7-AAD staining based flow cytometric analysis (reference value: 9.92 %); type: functional
[17] = Effect on RET protein level in mouse BaF3 cells stably expressing KIF5B-RET-G810R mutant assessed as fold change at 33.3 nM measured after 6 hrs by Western blot analysis (reference value: 1); type: functional
[18] = Induction of apoptosis in mouse BaF3 cells stably expressing KIF5B-RET-G810C mutant assessed as viable cells at 900 nM measured after 48 hrs by Annexin V-FITC/7-AAD staining based flow cytometric analysis (reference value: 86.58 %); type: functional; settings: read-out: Activity
[19] = target: Protein cereblon/Eukaryotic peptide chain release factor GTP-binding subunit ERF3A (Mus musculus) (UniProt Q8C7D2+Q8R050); assay: PROTAC activity at CRBN/GSPT1 in mouse BaF3 cells overexpressing KIF5B-RET assessed as induction of GSPT1 degradation at 10 to 1000 nM incubated for 6 hrs by Western blot analysis; type: cell-based; settings: dose 10-1000 nM
Chain of Protein cereblon/Eukaryotic peptide chain release factor GTP-binding subunit ERF3A (Mus musculus) (Q8C7D2 whole entry, looked up): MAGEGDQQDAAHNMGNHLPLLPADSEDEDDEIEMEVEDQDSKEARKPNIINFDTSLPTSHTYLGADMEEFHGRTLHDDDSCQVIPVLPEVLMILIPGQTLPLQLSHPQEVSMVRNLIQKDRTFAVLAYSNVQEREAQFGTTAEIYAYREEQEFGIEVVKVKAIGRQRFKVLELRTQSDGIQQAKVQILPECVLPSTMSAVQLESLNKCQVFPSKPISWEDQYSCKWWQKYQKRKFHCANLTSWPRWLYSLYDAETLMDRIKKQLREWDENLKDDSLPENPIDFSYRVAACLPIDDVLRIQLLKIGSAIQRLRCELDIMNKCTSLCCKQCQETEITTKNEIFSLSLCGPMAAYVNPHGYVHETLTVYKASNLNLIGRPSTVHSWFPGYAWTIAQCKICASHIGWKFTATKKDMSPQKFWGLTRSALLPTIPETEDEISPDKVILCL
Chain of Protein cereblon/Eukaryotic peptide chain release factor GTP-binding subunit ERF3A (Mus musculus) (Q8R050 whole entry, looked up): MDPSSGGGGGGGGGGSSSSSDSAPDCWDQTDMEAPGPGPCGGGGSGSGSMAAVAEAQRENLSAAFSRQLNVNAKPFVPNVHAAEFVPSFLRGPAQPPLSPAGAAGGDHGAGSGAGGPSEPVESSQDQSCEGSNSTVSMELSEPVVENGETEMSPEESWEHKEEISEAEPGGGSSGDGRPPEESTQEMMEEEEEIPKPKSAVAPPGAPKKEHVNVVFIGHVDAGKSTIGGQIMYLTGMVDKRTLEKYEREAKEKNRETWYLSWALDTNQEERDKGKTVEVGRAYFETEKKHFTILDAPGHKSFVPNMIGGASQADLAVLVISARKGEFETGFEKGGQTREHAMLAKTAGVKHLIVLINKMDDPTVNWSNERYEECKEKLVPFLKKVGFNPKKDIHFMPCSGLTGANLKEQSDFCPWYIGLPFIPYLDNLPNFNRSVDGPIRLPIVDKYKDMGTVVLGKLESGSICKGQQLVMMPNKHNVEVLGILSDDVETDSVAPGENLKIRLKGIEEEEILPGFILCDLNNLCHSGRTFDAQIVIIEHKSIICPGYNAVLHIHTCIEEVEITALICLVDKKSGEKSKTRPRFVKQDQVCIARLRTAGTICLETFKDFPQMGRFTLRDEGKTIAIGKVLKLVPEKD

[20] = Effect on RET protein level in mouse BaF3 cells stably expressing wildtype KIF5B-RET assessed as fold change at 33.3 nM measured after 6 hrs by Western blot analysis (reference value: 1); type: functional
[21] = Induction of apoptosis in mouse BaF3 cells stably expressing KIF5B-RET-G810C mutant assessed as necrotic cells at 100 nM measured after 48 hrs by Annexin V-FITC/7-AAD staining based flow cytometric analysis (reference value: 2.89 %); type: functional
[22] = Induction of apoptosis in mouse BaF3 cells stably expressing wildtype KIF5B-RET fusion protein assessed as early apoptotic cells at 300 nM measured after 48 hrs by Annexin V-FITC/7-AAD staining based flow cytometric analysis (reference value: 9.92 %); type: functional
[23] = Effect on Shc protein level in mouse BaF3 cells stably expressing wildtype KIF5B-RET assessed as fold change at 300 nM measured after 6 hrs by Western blot analysis; type: functional
[24] = Induction of apoptosis in mouse BaF3 cells stably expressing wildtype KIF5B-RET fusion protein assessed as viable cells at 33.3 nM measured after 48 hrs by Annexin V-FITC/7-AAD staining based flow cytometric analysis (reference value: 86.65 %); type: functional; settings: read-out: Activity
[25] = Effect on Shc protein level in mouse BaF3 cells stably expressing KIF5B-RET-V804M mutant assessed as fold change at 33.3 nM measured after 6 hrs by Western blot analysis (reference value: 1); type: functional
[26] = Effect on Shc protein level in mouse BaF3 cells stably expressing KIF5B-RET-G810C mutant assessed as fold change at 33.3 nM measured after 6 hrs by Western blot analysis (reference value: 1); type: functional
[27] = PROTAC activity at CRBN/KIF5B-RET (unknown origin) expressed in mouse BaF3 cells assessed as induction of RET degradation measured after 6 hrs by Western blot analysis; settings: Homo sapiens, BaF3, 6 h

With COc1ccc(CN2C3CC2CN(c2ccc(-c4cc(-c5cnn(C6CCN(CCCCCC#Cc7cccc8c7CN(C7CCC(=O)NC7=O)C8=O)CC6)c5)cn5ncc(C#N)c45)cn2)C3)cn1 (stereo not drawn) the IC50 (BaF3) was 0.05 µM, the “fold change (FC)” value [1] was 0.7 and the Activity [2] was 54.08%. For the same compound, the “Ratio IC50” value [3] was roughly 7, the Activity [4] was 0.52% and the “fold change (FC)” value [5] was 1. For the same compound, the Activity [6] was 47%, the “fold change (FC)” value [7] was 0.2 and the “Ratio IC50” value [8] was roughly 8.8. The viability at 0.0333 µM [9] was 85.5%, the Cmax [10] was 0.068 µg/mL and the “fold change (FC)” value [11] was 0.3. The Activity [12] was 10.15%, the “Ratio IC50” value [13] was roughly 14 and the “fold change (FC)” value [14] was 0.4. The Activity [15] was 1.62%, the Activity [16] was 20.96% and the “fold change (FC)” value [17] was 0.9. For the same compound, the viability at 0.9 µM [18] was 41%, the Activity [19] was “inactive” and the “fold change (FC)” value [20] was 0.3. For the same compound, the Activity [21] was 2.09%, the Activity [22] was 48.33% and the “fold change (FC)” value [23] was 1. The viability at 0.0333 µM [24] was 74.2%, the “fold change (FC)” value [25] was 1 and the “fold change (FC)” value [26] was 1. The DC50 [27] was 0.0047 µM.
